# Laboratory results from US6727076B2 (priority 1995, dated 2004).
# “Also recorded” adds a separate entry of the source. Peptide text beside a SMILES is read from it.
# Test system: E. coli MG1655
# Assay type: cell-based
SMILES,"suitability as sulfur source (growth, purple color)","suitability as phosphorus source (growth, purple color)"
O=S(=O)(O)CCO [isethionate],positive,
C=C(OP(=O)(O)O)C(=O)O [phosphoenol pyruvate],,positive
Nc1nc2c(ncn2[C@@H]2O[C@H](CO)[C@@H](OP(=O)(O)O)[C@H]2O)c(=O)[nH]1 [guanosine 3′-monophosphate],,positive
C[C@H](CCC(=O)NCCS(=O)(=O)O)[C@H]1CC[C@H]2[C@@H]3[C@H](O)C[C@@H]4C[C@H](O)CC[C@]4(C)[C@H]3C[C@H](O)[C@]12C [taurocholic acid],positive,
O=P(O)(O)OC1O[C@H](CO)[C@@H](O)[C@H](O)[C@@H]1O (stereo partly shown) [mannose 1-phosphate],,positive

# Test system: E. coli MG1655
# Assay type: cell-based
# Remark: another data set of the same source
row,SMILES,"suitability as nitrogen source (growth, purple color)"
1,N[C@@H]1C(O)O[C@H](CO)[C@@H](O)[C@@H]1O (stereo partly drawn) [D-mannosamine],weak positive
2,CC(O)C(N)=O (stereo not shown) [lactamide],not suitable
3,N[C@H]1C(O)O[C@H](CO)[C@H](O)[C@@H]1O (stereo partly drawn) [D(+)-galactosamine],weak positive
4,CCC(N)C(=O)O (racemic) [DL-α-amino-n-butyric acid],not suitable
5,N[C@H](CCC(=O)O)C(=O)O [D-glutamic acid],not suitable
6,NC(N)=O [urea],not suitable
7,C[C@H](NC(=O)CN)C(=O)O [gly-ala] (H-Gly-Ala-OH),positive
8,NCCCC[C@H](N)C(=O)O [L-lysine],not suitable
9,O=C1NC(=O)C(=O)C(=O)N1 [alloxan],not suitable
10,NCCCCCC(=O)O [ε-amino-n-caproic acid],not suitable
11,NCCCCN [putrescine],not suitable
12,Nc1ncnc2nc[nH]c12 [adenine],not suitable
13,CSCC[C@H](NC(=O)CN)C(=O)O [gly-met],positive
14,N[C@@H](CCO)C(=O)O [L-homoserine],not suitable
15,C[C@H](N)C(=O)N[C@@H](Cc1cnc[nH]1)C(=O)O [ala-his] (H-Ala-His-OH),not suitable
16,N=C(N)NCCCCN [agmatine],not suitable
17,C[C@H](N)C(=O)N[C@@H](CCC(N)=O)C(=O)O [ala-gln] (H-Ala-Gln-OH),positive
18,CC(N)=O [acetamide],not suitable
19,"Cl.N [NH4Cl, ammonium chloride]",positive
20,CC(C)C[C@H](N)C(=O)O [L-leucine],not suitable

row,SMILES,"suitability as nitrogen source (growth, purple color)"
1,CCCCN [n-butylamine],not suitable
2,NC(=O)[C@@H](O)[C@@H](O)[C@H](O)[C@@H](O)C=O [Glucuronamide],not suitable
3,N=C(N)NCCC[C@H](N)C(=O)O [L-arginine],positive
4,N[C@H]1C(O)O[C@H](CO)[C@@H](O)[C@@H]1O (stereo partly drawn) [D(+)-glucosamine],positive
5,C[C@H](N)C(=O)N[C@H](C(=O)O)[C@@H](C)O [ala-thr] (H-Ala-Thr-OH),positive
6,CCN [ethylamine],not suitable
7,NCCc1c[nH]cn1 [histamine],not suitable
8,CC[C@H](C)[C@H](N)C(=O)O [L-isoleucine],not suitable
9,Cc1cn([C@H]2C[C@H](O)[C@@H](CO)O2)c(=O)[nH]c1=O [Thymidine],not suitable
10,O=C(O)CNC(=O)c1ccccc1 [hippuric acid],not suitable
11,CC(=O)N[C@H]1C(O)O[C@H](CO)[C@H](O)[C@@H]1O (stereo partly drawn) [N-acetyl-D-galactosamine],not suitable
12,NCCN [ethylenediamine],not suitable
13,CCCCCCC(N)C(=O)O (racemic) [DL-α-amino-caprylic acid],not suitable
14,NC(=O)NCCC[C@H](N)C(=O)O [L-citrulline],not suitable
15,O=NO [sodium nitrite],not suitable
16,NCC(=O)O [glycine],positive
17,NC=O [formamide],not suitable
18,N[C@@H](Cc1ccc(O)cc1)C(=O)O [L-tyrosine],not suitable
19,CCCC(N)C(=O)O (stereo not shown) [2-amino-valeric acid],not suitable
20,CC(C)[C@H](N)C(=O)O [L-valine],not suitable

row,SMILES,"suitability as nitrogen source (growth, purple color)"
1,Nc1ncnc2c1ncn2[C@@H]1O[C@H](CO)[C@@H](O)[C@H]1O [Adenosine],not suitable
2,NCC(=O)N[C@@H](CC(N)=O)C(=O)O [gly-asn] (H-Gly-Asn-OH),positive
3,CC(=O)N[C@@H]1C(O)O[C@H](CO)[C@@H](O)[C@@H]1O (stereo partly drawn) [N-acetyl-D-mannosamine],not suitable
4,NCCc1ccccc1 [Phenylethyl amine],not suitable
5,NCCCC[C@@H](N)C(=O)O [D-lysine],not suitable
6,C[C@@H](N)c1ccccc1 [(R)-(+)-α-phenylethylamine],not suitable
7,Cc1c[nH]c(=O)[nH]c1=O [thymine],not suitable
8,O=[N+]([O-])[O-].[K+] [potassium nitrate],not suitable
9,CC(=O)NCC(=O)O [N-acetyl-glycine],not suitable
10,NCC(=O)N[C@@H](CCC(N)=O)C(=O)O [gly-gln] (H-Gly-Gln-OH),positive
11,NCCc1ccc(O)cc1 [Tyramine],not suitable
12,CC(C)[C@@H](N)C(=O)O [D-valine],not suitable
13,O=c1[nH]c(=O)c2ncn([C@@H]3O[C@H](CO)[C@@H](O)[C@H]3O)c2[nH]1 [xanthosine],not suitable
14,CCCCCN [n-amylamine],not suitable
15,O=c1[nH]c(=O)c2[nH]cnc2[nH]1 [xanthine],not suitable
16,O=c1[nH]c(=O)c2[nH]c(=O)[nH]c2[nH]1 [uric acid],not suitable
17,O=C(O)/C=C/c1c[nH]cn1 [urocanic acid],not suitable
18,NC(=O)C[C@@H](N)C(=O)O [D-asparagine],not suitable
19,CSCC[C@H](N)C(=O)N[C@@H](C)C(=O)O [met-ala] (H-Met-Ala-OH),not suitable

# Test system: E. coli 287 (ATCC #11775)
# Assay type: cell-based
row,SMILES,carbon source utilization result
1,"CC(O)C(C)O (stereo not shown) [2,3-butanediol]",positive/negative
2,CCCC(=O)C(=O)O [α-ketovaleric acid],negative
3,"C[N+](C)(C)CC(O)CC(=O)[O-] (racemic) [D,L-carnitine]",negative
4,O=C(O)[C@H](O)[C@@H](O)[C@H](O)[C@H](O)CO [D-gluconic acid],positive
5,"CC(O)C(=O)O (racemic) [D,L-lactic acid]",positive
6,O=C(O)/C=C(/CC(=O)O)C(=O)O [cis-aconitic acid],positive/negative
7,NCCCCN [putrescine],positive/negative
8,C=C(CC(=O)O)C(=O)O [itaconic acid],negative
9,OC[C@H]1O[C@@H]2O[C@H]3[C@H](O)[C@@H](O)[C@@H](O[C@H]4[C@H](O)[C@@H](O)[C@@H](O[C@H]5[C@H](O)[C@@H](O)[C@@H](O[C@H]6[C@H](O)[C@@H](O)[C@@H](O[C@H]7[C@H](O)[C@@H](O)[C@@H](O[C@H]1[C@H](O)[C@H]2O)O[C@@H]7CO)O[C@@H]6CO)O[C@@H]5CO)O[C@@H]4CO)O[C@@H]3CO [α-cyclodextrin],negative
10,OC[C@@H](O)[C@@H](O)[C@@H](O)CO [Adonitol],negative
11,CC(C)C[C@H](N)C(=O)O [L-leucine],negative
12,O=C(O)CC(=O)O [malonic acid],negative
13,Cc1cn([C@H]2C[C@H](O)[C@@H](CO)O2)c(=O)[nH]c1=O [Thymidine],positive
14,CC(=O)N[C@H]1C(O)O[C@H](CO)[C@H](O)[C@@H]1O (stereo partly drawn) [N-acetyl-D-galactosamine],positive
15,C[C@H](N)C(N)=O [alaninamide],positive
16,OC[C@H]1O[C@@H](O[C@H]2[C@H](O)[C@@H](O)[C@@H](O)O[C@@H]2CO)[C@H](O)[C@@H](O)[C@H]1O [α-D-lactose],positive
17,O=C[C@H](O)[C@@H](O)[C@H](O)[C@H](O)C(=O)O [D-glucuronic acid],positive
18,NCCc1ccccc1 [Phenylethyl amine],positive/negative
19,O=C(O)CCCO [γ-hydroxybutyric acid],negative
20,CC(=O)O [Acetic acid],positive
21,NCC(=O)N[C@@H](CC(=O)O)C(=O)O [Glycyl-L-aspartic acid] (H-Gly-Asp-OH),positive
22,O=C(O)/C=C/c1c[nH]cn1 [urocanic acid],negative; also recorded: equivocal; also recorded: positive
23,C[C@H](O)[C@H](O)[C@@H](O)[C@@H](O)C=O [L-rhamnose],positive
24,OC[C@@H](O)[C@H](O)[C@@H](O)CO [xylitol],negative
